Reference: patent US20040102423A1, “Spironolactone and angiotensin II antagonist combination therapy for treatment of congestive heart failure” (G.D. Searle & Co., priority 1995, published 2004)
Read-outs that look alike come from different tables or passages of the source.

Assays:
[1] = molecular target: angiotensin II AT1 receptor; assay: Assay A: Angiotensin II binding activity, rat uterine membrane preparation, 125I-AII displacement
Description: Assay A: Antiotensin II Binding Activity
Compounds of the invention were tested for ability to bind to the smooth muscle angiotensin II receptor using a rat uterine membrane preparation. […] Rat uterine membranes were prepared from fresh tissue. All procedures were carried out at 4° C. Uteri were stripped of fat and homogenized in phosphate-buffered saline at pH 7.4 containing 5 mM EDTA. The homogenate was centrifuged at 1500×g for 20 min., and the supernatant was recentrifuged at 100,000×g for 60 min. The pellet was resuspended in buffer consisting of 2 mM EDTA and 50 mM Tris-HCl (pH 7.5) to a final protein concentration of 4 mg/ml. […] The reaction was initiated by the addition of membrane protein and the mixture was incubated at 25° C. for 60 min. The incubation was terminated with ice-cold 50 mM Tris-HCl (pH 7.5) and the mixture was filtered to separate membrane-bound labelled peptide from the free ligand. The incubation tube and filter were washed with ice-cold buffer. Filters were assayed for radioactivity in a Micromedic gamma counter. Nonspecific binding was defined as binding in the presence of 10 μM of unlabelled AII. Specific binding was calculated as total binding minus nonspecific binding. […] Binding data were analyzed by a nonlinear least-squares curve fitting program.

pressor response to AII = assay: Assay C: In vivo intragastric pressor assay response for AII antagonists; parameters: species or system Sprague-Dawley rats; details: for inhibition in vivo at 30 mg/kg: read-out: Assay C Inhibition
rabbit aortic rings = assay: Assay B: In vitro vascular smooth muscle response for AII (antagonist activity, pA2); format: cell-based; details: Oryctolagus cuniculus, two values in a cell = two determinations
Description: Assay B: In Vitro Vascular Smooth Muscle-Response for AII
The compounds of the invention were tested for antagonist activity in rabbit aortic rings. Male New Zealand white rabbits (2-2.5 kg) were sacrificed using an overdose of pentobarbital and exsanguinated via the carotid arteries. The thoracic aorta was removed, cleaned of adherent fat and connective tissue and then cut into 3-mm ring segments. The endothelium was removed from the rings by gently sliding a rolled-up piece of filter paper into the vessel lumen. The rings were then mounted in a water-jacketed tissue bath, maintained at 37° C., between moveable and fixed ends of a stainless steel wire with the moveable end attached to an FT03 Grass transducer coupled to a Model 7D Grass Polygraph for recording isometric force responses. The bath was filled with 20 ml of oxygenated (95% oxygen/5% carbon dioxide) Krebs solution of the following composition (mM): 130 NaCl, 15 NaHCO3, […], 1.2 NaH2PO4, 1.2 MgSO4, 2.5 CaCl2, and 11.4 glucose. The preparations were equilibrated for one hour before approximately one gram of passive tension was placed on the rings. Angiotensin II concentration-response curves were then recorded (3×10^−10 to 1×10^−5 M). Each concentration of AII was allowed to elicit its maximal contraction, and then AII was washed out repeatedly for 30 minutes before rechallenging with a higher concentration of AII. Aorta rings were exposed to the test antagonist at 10^−5 M for 5 minutes before challenging with AII. Adjacent segments of the same aorta ring were used for all concentration-response curves in the presence or absence of the test antagonist. The effectiveness of the test compound was expressed in terms of pA2 values and were calculated according to H. O. Schild [Br. J. Pharmacol. Chemother., 2, 189-206 (1947)]. The pA2 value is […] which increases the EC50 value for AII by a factor of two. Each test antagonist was evaluated in aorta rings from two rabbits.

[2] = in vivo pressor response, 30 mg/kg intraduodenally
[3] = Rattus norvegicus, intraduodenal, in vivo pressor response, 30 mg/kg intraduodenally
[4] = Rattus norvegicus, po, in vivo pressor response, 3 mg/kg intragastrically
[5] = in vivo pressor response, 3 mg/kg intragastrically

| IC50 [1] [nM] | Structure (SMILES) | inhibition in vivo at 3 mg/kg (pressor response to AII; [4]) [%] | Assay C Duration (pressor response to AII; [5]) [min] | further results |
| --- | --- | --- | --- | --- |
| 23 | CCCCc1cn(C(C)(C)C)c(=O)n1Cc1ccc(-c2ccccc2-c2nnn[nH]2)nc1 [Compound 212] | 15 | 180 |  |
| 9.4 | CCCCc1cn(CCC2CC2)c(=O)n1Cc1ccc(-c2ccccc2-c2nnn[nH]2)nc1 [Compound 217] | 65 | >180 |  |
| 7 | CCCCc1cn(CCc2cccs2)c(=O)n1Cc1ccc(-c2ccccc2-c2nnn[nH]2)nc1 [Compound 220] | 75 | 120 |  |
| 4.8 | CCCCc1cn(CCc2ccccc2)c(=O)n1Cc1ccc(-c2ccccc2-c2nnn[nH]2)nc1 [Compound 221] | 25 | >180 |  |
| 14 | CCCCc1cn(CCC2=CCCC2)c(=O)n1Cc1ccc(-c2ccccc2-c2nnn[nH]2)nc1 [Compound 223] | 20 | >180 |  |
| 4.5 | CCCCc1cn(-c2ccccc2C)c(=O)n1Cc1ccc(-c2ccccc2-c2nnn[nH]2)nc1 [Compound 228] | 80 | >180 |  |
| 19 | CCCCc1cn(-c2ccccc2OC)c(=O)n1Cc1ccc(-c2ccccc2-c2nnn[nH]2)nc1 [Compound 229] | 40 | >180 |  |
| 2.6 | CCCCc1cn(-c2ccccc2C(C)C)c(=O)n1Cc1ccc(-c2ccccc2-c2nnn[nH]2)nc1 [Compound 230] | 25 | >180 |  |
| 3.6 | CCCCc1cn(-c2c(F)cccc2F)c(=O)n1Cc1ccc(-c2ccccc2-c2nnn[nH]2)nc1 [Compound 231] | 75 | >180 |  |
| 5 | CCCCc1cn(CCCC)c(=O)n1Cc1ccc(-c2ccccc2-c2nnn[nH]2)cn1 [Compound 234] | 20 |  |  |
| 4.9 | CCCCc1cn(CCCC)c(=O)n1Cc1ccc(-c2cnccc2-c2nnn[nH]2)cc1 [Compound 236] | 70 | >180 |  |
| 1.7 | CCCCc1cn(CCCC)c(=O)n1Cc1ccc(-c2cccnc2-c2nnn[nH]2)cc1 [Compound 238] | 15 | >180 |  |
| 6.9 | CCCCc1cn(-c2c(OC)cccc2OC)c(=O)n1Cc1ccc(-c2ccccc2-c2nnn[nH]2)nc1 [Compound 241] | 40 | >180 |  |
| 4.4 | CCCCc1cn(-c2cccn2CC)c(=O)n1Cc1ccc(-c2ccccc2-c2nnn[nH]2)nc1 [Compound 249] | 20 | >180 |  |
| 43 | CCCCc1nc(CCCC)n(Cc2ccc(-c3ccccc3-c3nnn[nH]3)cn2)n1 [Compound 250] | 0 |  |  |
| 4.1 | CCCCc1nc(CCCC)n(Cc2ccc(-c3ncccc3-c3nnn[nH]3)cc2)n1 [Compound 256] | 30 | >180 |  |
| 25 | CCCCc1nc(C(=O)N(C)C(C)(C)C)n(Cc2ccc(-c3ccccc3-c3nnn[nH]3)nc2)n1 [Compound 267] | 25 | >180 |  |
| 520 | CCCCc1nc(C(=O)NC)nn1Cc1ccc(-c2ccccc2-c2nnn[nH]2)nc1 [Compound 268] | 0 |  |  |
| 14 | CCCCc1nc(-c2ccccc2)n(Cc2ccc(-c3ccccc3-c3nnn[nH]3)nc2)n1 [Compound 271] | 20 |  |  |
| 97 | CCCCc1nc(-c2ccccc2C)nn1Cc1ccc(-c2ccccc2-c2nnn[nH]2)nc1 [Compound 272] | 70 | >180 |  |

Further lines, the compound ahead of its results:

| Structure (SMILES) | IC50 [1] [nM] | inhibition in vivo at 3 mg/kg (pressor response to AII; [4]) [%] | Assay C Duration (pressor response to AII; [5]) [min] | further results |
| --- | --- | --- | --- | --- |
| COC(=O)[C@@H]1CC2=CC(=O)CC[C@]2(C)C23O[C@@H]2C[C@@]2(C)[C@@H](CC[C@@]2(O)CCC(=O)O)[C@H]13.[K+] (stereo partly shown) [Compound 5] | 200 |  |  | inhibition in vivo at 30 mg/kg (pressor response to AII; Rattus norvegicus, intraduodenal): 38%; Assay C Duration (pressor response to AII; [2]): 20 to 30 min |
| C[C@]12CCC(=O)C=C1C1CC1[C@H]1[C@@H]3CC[C@@]4(CCC(=O)O4)[C@@]3(C)CC3O[C@]312 (stereo partly shown) [Compound 9] | 700 |  |  | inhibition in vivo at 30 mg/kg (pressor response to AII; [3]): 80%; inhibition in vivo at 100 mg/kg (pressor response to AII; Rattus norvegicus, intraduodenal, in vivo pressor response, 100 mg/kg intraduodenally): 100%; Assay C Duration (pressor response to AII; [2]): 75 min; Assay C Duration (pressor response to AII; in vivo pressor response, 100 mg/kg intraduodenally): 130 min |
| CCOC(=O)[C@@H]1CC2=CC(=O)CC[C@]2(C)C23O[C@@H]2C[C@@]2(C)[C@@H](CC[C@@]24CCC(=O)O4)[C@H]13 (stereo partly shown) [Compound 10] | 4.9 |  |  | inhibition in vivo at 3 mg/kg (pressor response to AII; Rattus norvegicus, intraduodenal, in vivo pressor response, 3 mg/kg intraduodenally): 86%; inhibition in vivo at 30 mg/kg (pressor response to AII; [3]): 100%; Assay C Duration (pressor response to AII; in vivo pressor response, 3 mg/kg intraduodenally): 100 min; Assay C Duration (pressor response to AII; [2]): 240 min |
| CCCCc1nc(C(F)(F)C(F)(F)C(F)(F)F)nn1Cc1ccc(-c2ccccc2-c2nnn[nH]2)cc1 [Compound 81] |  |  |  | Kb (rabbit aortic rings): 10 nM |
| CCCCc1nc2c(O)nnc(CCC)c2n1Cc1ccc(-c2ccccc2-c2nnn[nH]2)cc1 [Compound 125] |  | 35 | >240 |  |
| CCCCc1nc2cnncc2n1Cc1ccc(-c2ccccc2-c2nnn[nH]2)cc1 [Compound 128] |  |  |  | Kb (rabbit aortic rings): 2.34 nM |
| CCCCc1nc(CCCC)n(Cc2ccc(-n3ccc(-c4nnn[nH]4)c3)cc2)n1 [Compound 153] | 13 | 25 | >180 |  |
| CCCCn1nc(C(O)CCC)nc1Cc1ccc(-c2ccccc2-c2nnn[nH]2)nc1 (stereo not shown) [Compound 170] | 26 | 40 | >180 |  |
| CCCCn1nc(C(=O)CCC)nc1Cc1ccc(-c2ccccc2-c2nnn[nH]2)nc1 [Compound 171] | 28 | 0 | 0 |  |
| CCn1nc(C(C)(F)F)nc1Cc1ccc(-c2ccccc2-c2nnn[nH]2)nc1 [Compound 175] | 27 | 0 | 0 |  |
| CCCCn1nc(C(C)(F)F)nc1Cc1ccc(-c2ccccc2-c2nnn[nH]2)nc1 [Compound 177] | 26 | 15 | 180 |  |
| CCCn1nc(C(F)(F)CCC)nc1Cc1ccc(-c2ccccc2-c2nnn[nH]2)nc1 [Compound 180] | 20 | 25 | 180 |  |
| CCCCn1nc(C(F)(F)CCC)nc1Cc1ccc(-c2ccccc2-c2nnn[nH]2)nc1 [Compound 181] | 21 | 20 | 180 |  |
| CCCCn1nc(C(OC)OC)nc1Cc1ccc(-c2ccccc2-c2nnn[nH]2)nc1 [Compound 186] | 38 | 25 | 18 |  |
| CCCCn1nc(C(C)(OC)OC)nc1Cc1ccc(-c2ccccc2-c2nnn[nH]2)nc1 [Compound 193] | 11 | 10 | 180 |  |
| CCCCn1cc(CCC(C)C)n(Cc2ccc(-c3ccccc3-c3nnn[nH]3)nc2)c1=O [Compound 200] | 20 | 45 | >180 |  |
| CCCCn1cc(CCC2CC2)n(Cc2ccc(-c3ccccc3-c3nnn[nH]3)nc2)c1=O [Compound 204] | 16 | 75 | >180 |  |
| CCCCc1cn(CC(C)C)c(=O)n1Cc1ccc(-c2ccccc2-c2nnn[nH]2)nc1 [Compound 208] | 22 | 50 | >180 |  |
